Experimental data: patent publication US11434222B2, “MAGL inhibitors” (H. LUNDBECK A/S, priority 2020, dated 2022)

Target: T1, MAGL (Homo sapiens, UniProt Q99685)
T1 construct: PC3 human cell membrane proteomes; endogenous in cells; host or cells: PC3 human cells (membrane proteome)
T1 sequence (Q99685 1-303): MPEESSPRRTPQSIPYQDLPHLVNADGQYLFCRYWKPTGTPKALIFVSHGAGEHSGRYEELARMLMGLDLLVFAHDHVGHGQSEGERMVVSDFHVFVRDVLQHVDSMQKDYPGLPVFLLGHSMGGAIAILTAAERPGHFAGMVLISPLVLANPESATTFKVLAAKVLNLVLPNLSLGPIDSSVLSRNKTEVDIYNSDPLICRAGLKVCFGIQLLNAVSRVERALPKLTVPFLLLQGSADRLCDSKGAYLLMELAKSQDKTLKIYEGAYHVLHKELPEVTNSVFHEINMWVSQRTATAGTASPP
Assay: In vitro competitive activity-based protein profiling (PC3 human cell membrane proteomes)
Type: biochemical
Conditions: not given
Procedure: PC3 human cell membrane proteomes (50 µL, 2.0 mg/mL total protein concentration) were preincubated with varying concentrations of inhibitors at 37° C. After 30 min, the ABPP probe JW912-Bodipy (1.0 µL, 50 µM in DMSO) was added and the mixture was incubated for 30 min at room temperature. Reactions were quenched with SDS loading buffer (15 μL-4×) and run on SDS-PAGE. Following gel imaging, serine hydrolase activity was determined by measuring fluorescent intensity of gel bands corresponding to MAGL using ImageJ 1.43u software. Intensities were converted to percent enzyme activity by normalizing to DMSO controls. IC50 values were determined by fitting percent enzyme activities to a non-linear regression, 4-parameter, sigmoidal dose response function in Prism GraphPad.

SMILES	MAGL % inh. 1 µM (human PC3)
O=C(Nc1cncnc1)C1CC12CCN(C(=O)OC(C(F)(F)F)C(F)(F)F)CC2 (single isomer, unassigned) [Example 97, 1,1,1,3,3,3-hexafluoropropan-2-yl (R or S)-1-(pyrimidin-5-ylcarbamoyl)-6-azaspiro[2.5]octane-6-carboxylate]	90%
O=C(NC(=O)C1CC12CCN(C(=O)OC(C(F)(F)F)C(F)(F)F)CC2)C1CCCCC1 (single isomer, unassigned) [Example 91, 1,1,1,3,3,3-hexafluoropropan-2-yl (R or S)-1-((cyclohexanecarbonyl)carbamoyl)-6-azaspiro[2.5]octane-6-carboxylate]	100%
O=C(Nc1cncc(Cl)c1)C1CC12CCN(C(=O)OC(C(F)(F)F)C(F)(F)F)CC2 (single isomer, unassigned) [Example 67, 1,1,1,3,3,3-hexafluoropropan-2-yl (R or S)-1-((5-chloropyridin-3-yl)carbamoyl)-6-azaspiro[2.5]octane-6-carboxylate]	100%
O=C(OC(C(F)(F)F)C(F)(F)F)N1CCC2(CC1)CC2C(=O)N1CCc2ncncc2C1 (single isomer, unassigned) [Example 61, 1,1,1,3,3,3-hexafluoropropan-2-yl (R or S)-1-(5,6,7,8-tetrahydropyrido[4,3-d]pyrimidine-6-carbonyl)-6-azaspiro[2.5]octane-6-carboxylate]	75%
O=C(Nc1ccc(C(F)(F)F)nc1)C1CC12CCN(C(=O)OC(C(F)(F)F)C(F)(F)F)CC2 (single isomer, unassigned) [Example 79, 1,1,1,3,3,3-hexafluoropropan-2-yl (R or S)-1-((6-(trifluoromethyl)pyridin-3-yl)carbamoyl)-6-azaspiro[2.5]octane-6-carboxylate]	50%
Cc1ccc(NC(=O)C2CC23CCN(C(=O)OC(C(F)(F)F)C(F)(F)F)CC3)cn1 (single isomer, unassigned) [Example 82, 1,1,1,3,3,3-hexafluoropropan-2-yl (R or S)-1-((6-methylpyridin-3-yl)carbamoyl)-6-azaspiro[2.5]octane-6-carboxylate]	100%
O=C(Nc1cnc(C(F)(F)F)nc1)C1CC12CCN(C(=O)OC(C(F)(F)F)C(F)(F)F)CC2 (single isomer, unassigned) [Example 100, 1,1,1,3,3,3-hexafluoropropan-2-yl (R or S)-1-((2-(trifluoromethyl)pyrimidin-5-yl)carbamoyl)-6-azaspiro[2.5]octane-6-carboxylate]	75%

Next, values leading:

MAGL % inh. 1 µM (human PC3)	SMILES
100%	O=C(Nc1cccnc1C(F)(F)F)C1CC12CCN(C(=O)OC(C(F)(F)F)C(F)(F)F)CC2 (single isomer, unassigned) [Example 85, 1,1,1,3,3,3-hexafluoropropan-2-yl (R or S)-1-((2-(trifluoromethyl)pyridin-3-yl)carbamoyl)-6-azaspiro[2.5]octane-6-carboxylate]
100%	O=C(Nc1cnccn1)C1CC12CCN(C(=O)OC(C(F)(F)F)C(F)(F)F)CC2 (single isomer, unassigned) [Example 55, 1,1,1,3,3,3-hexafluoropropan-2-yl (R or S)-1-(pyrazin-2-ylcarbamoyl)-6-azaspiro[2.5]octane-6-carboxylate]
100%	O=C(Nc1ccccn1)C1CC12CCN(C(=O)OC(C(F)(F)F)C(F)(F)F)CC2 (single isomer, unassigned) [Example 49, 1,1,1,3,3,3-hexafluoropropan-2-yl (R or S)-1-(pyridin-2-ylcarbamoyl)-6-azaspiro[2.5]octane-6-carboxylate]
100%	O=C(OC(C(F)(F)F)C(F)(F)F)N1CCC2(CC1)CC2C(=O)N1CCn2cc(C(F)(F)F)nc2C1 (single isomer, unassigned) [Example 52, 1,1,1,3,3,3-hexafluoropropan-2-yl (R or S)-1-(2-(trifluoromethyl)-5,6,7,8-tetrahydroimidazo[1,2-a]pyrazine-7-carbonyl)-6-azaspiro[2.5]octane-6-carboxylate]
100%	Cc1ncccc1NC(=O)C1CC12CCN(C(=O)OC(C(F)(F)F)C(F)(F)F)CC2 (single isomer, unassigned) [Example 69, 1,1,1,3,3,3-hexafluoropropan-2-yl (R or S)-1-((2-methylpyridin-3-yl)carbamoyl)-6-azaspiro[2.5]octane-6-carboxylate]
100%	O=C(Nc1cccc(C(F)(F)F)n1)C1CC12CCN(C(=O)OC(C(F)(F)F)C(F)(F)F)CC2 (single isomer, unassigned) [Example 73, 1,1,1,3,3,3-hexafluoropropan-2-yl (R or S)-1-((6-(trifluoromethyl)pyridin-2-yl)carbamoyl)-6-azaspiro[2.5]octane-6-carboxylate]
100%	O=C(OC(C(F)(F)F)C(F)(F)F)N1CCC2(CC1)CC2C(=O)N1CCc2cnc(C(F)(F)F)nc2C1 (single isomer, unassigned) [Example 58, 1,1,1,3,3,3-hexafluoropropan-2-yl (R or S)-1-(2-(trifluoromethyl)-5,6,7,8-tetrahydropyrido[3,4-d]pyrimidine-7-carbonyl)-6-azaspiro[2.5]octane-6-carboxylate]
100%	O=C(NC(=O)C1CC12CCN(C(=O)OC(C(F)(F)F)C(F)(F)F)CC2)c1ccccc1 (single isomer, unassigned) [Example 94, 1,1,1,3,3,3-hexafluoropropan-2-yl (R or S)-1-(benzoylcarbamoyl)-6-azaspiro[2.5]octane-6-carboxylate]
100%	O=C(OC(C(F)(F)F)C(F)(F)F)N1CCC2(CC1)CC2C(=O)N1CCc2nc(C3CC3)ncc2C1 (single isomer, unassigned) [Example 64, 1,1,1,3,3,3-hexafluoropropan-2-yl (R or S)-1-(2-cyclopropyl-5,6,7,8-tetrahydropyrido[4,3-d]pyrimidine-6-carbonyl)-6-azaspiro[2.5]octane-6-carboxylate]
75%	Cc1ncccc1NC(=O)C1CC12CCN(C(=O)OC(C(F)(F)F)C(F)(F)F)CC2 (single isomer, unassigned) [Example 70, 1,1,1,3,3,3-hexafluoropropan-2-yl (R or S)-1-((2-methylpyridin-3-yl)carbamoyl)-6-azaspiro[2.5]octane-6-carboxylate]
100%	O=C(NCc1cccnc1)C1CC12CCN(C(=O)OC(C(F)(F)F)C(F)(F)F)CC2 (single isomer, unassigned) [Example 88, 1,1,1,3,3,3-hexafluoropropan-2-yl (R or S)-1-((pyridin-3-ylmethyl)carbamoyl)-6-azaspiro[2.5]octane-6-carboxylate]
100%	CN(C(=O)C1CC12CCN(C(=O)OC(C(F)(F)F)C(F)(F)F)CC2)c1ccccn1 (single isomer, unassigned) [Example 46, 1,1,1,3,3,3-hexafluoropropan-2-yl (R or S)-1-(methyl(pyridin-2-yl)carbamoyl)-6-azaspiro[2.5]octane-6-carboxylate]

Test system: not listed separately
Assay: Kinetic solubility in PBS
Type: physicochemical
Conditions: aqueous buffer, kinetic from dmso stock, PBS pH 2.0, RT, read-out: pH 2 Solubility (kinetic)
Procedure: The kinetic solubility of test articles was determined in PBS at pH 2.0 and pH 7.4 in duplicate. A stock solution of test compound in DMSO (10 mM) was incubated at RT for 2 hours with shaking at 1,100 RPM. The sample was then filtered using a vacuum manifold, diluted, and analyzed by LC-MS/MS. Chromatographic conditions: Phenomenex Synergi 4μ Hydro-PR 80A column (2.0×30 mm) coupled with pre-guard column; mobile phase=0.1% formic acid in acetonitrile and 0.1% formic acid in water; flowrate=0.65 mL/min; column temperature=40° C.; injection volume: 3 μL.
Mass conditions: Turbo spray ion source; ESI ionization model; MRM scan type; Collison gas=6 L/min; Curtain gas=30 L/min; Nebulize gas=50 L/min; Auxiliary gas=50 L/min; Temperature=500 degrees C.; Ion spray voltage=+5500 v (positive MRM).
The filtered solution was analyzed and quantified against a standard of known concentration in DMSO using UPLC coupled with mass spectral peak identification and quantitation. Solubility values of the test articles were calculated using Microsoft Excel as follows (DF is the dilution factor): […]

SMILES	solubility kinetic at 2 h
O=C(NC(=O)C1CC12CCN(C(=O)OC(C(F)(F)F)C(F)(F)F)CC2)C1CCCCC1 (single isomer, unassigned) [Example 90, 1,1,1,3,3,3-hexafluoropropan-2-yl (R or S)-1-((cyclohexanecarbonyl)carbamoyl)-6-azaspiro[2.5]octane-6-carboxylate]	33 µM

Same assay, conditions: aqueous buffer, kinetic from dmso stock, PBS pH 7.4, RT, read-out: pH 7.4 Solubility (kinetic)

SMILES	solubility kinetic at 2 h
O=C(Nc1ccnc(C(F)(F)F)n1)[C@H]1CC12CCN(C(=O)OC(C(F)(F)F)C(F)(F)F)CC2 (single isomer, unassigned) [Example 17]	0.07 µM
O=C(Nc1cncc(Cl)c1)C1CC12CCN(C(=O)OC(C(F)(F)F)C(F)(F)F)CC2 (single isomer, unassigned) [Example 66, 1,1,1,3,3,3-hexafluoropropan-2-yl (R or S)-1-((5-chloropyridin-3-yl)carbamoyl)-6-azaspiro[2.5]octane-6-carboxylate]	8.74 µM
